{"source": "paper PMC6295333", "about": "(Biochemistry, 2018)", "target": "Nicotine oxidoreductase (NicA2) (Pseudomonas putida, UniProt F8G0P2)", "sequence (F8G0P2 whole entry)": "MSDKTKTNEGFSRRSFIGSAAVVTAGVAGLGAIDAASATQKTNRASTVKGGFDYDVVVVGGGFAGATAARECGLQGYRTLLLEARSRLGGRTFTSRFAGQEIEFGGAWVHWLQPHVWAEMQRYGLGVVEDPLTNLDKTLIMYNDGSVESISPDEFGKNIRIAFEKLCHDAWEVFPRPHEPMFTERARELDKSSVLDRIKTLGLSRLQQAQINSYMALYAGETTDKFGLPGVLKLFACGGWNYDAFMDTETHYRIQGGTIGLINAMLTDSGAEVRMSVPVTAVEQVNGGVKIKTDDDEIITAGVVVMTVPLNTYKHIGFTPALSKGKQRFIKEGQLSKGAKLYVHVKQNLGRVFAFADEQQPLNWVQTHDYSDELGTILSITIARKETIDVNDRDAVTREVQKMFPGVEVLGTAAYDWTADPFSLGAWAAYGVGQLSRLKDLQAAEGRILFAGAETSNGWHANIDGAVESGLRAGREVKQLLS", "assay": "X-ray crystal structure at […] Å", "format": "binding", "data": [{"smiles": "Cc1cc2nc3c(=O)[nH]c(=O)nc-3n(C[C@H](O)[C@H](O)[C@H](O)COP(=O)(O)OP(=O)(O)OC[C@H]3O[C@@H](n4cnc5c(N)ncnc54)[C@H](O)[C@@H]3O)c2cc1C", "note": "[FAD]", "values": [{"measurement": "X-ray crystal structure at 2.65 Å", "result": "The general positioning of FAD is clearly defined in the electron density maps"}]}]}
